# Assay results: paper PMC7070036, “An amber obligate active site-directed ligand evolution technique for phage display” (Nature Communications, 2020)
# Starred links: 1 amine or outer side, 2 acyl side, 3 side chain; linkers in the order of their positions; H or OH if unused. Non-standard residues stand in square brackets, D forms with d. Residues, ends and D or L forms follow the SMILES beside them. X1 = CCCC(=S)NCCCC[C@H](N[*:1])C(=O)[*:2]
# How the values were obtained:
# [1] = test system: amber-obligate phagemid library; experiment: Phage yield on expression of the amber-obligate phagemid library with ncAAs (cfu assay); set-up: species or system E. coli Top10; conditions: BuKRS
# [2] = target: T1, SIRT1 (Homo sapiens, UniProt Q96EB6); experiment: Continuous fluorogenic sirtuin inhibition assay, SIRT1; assay type: biochemical
# T1 sequence (Q96EB6 1-747): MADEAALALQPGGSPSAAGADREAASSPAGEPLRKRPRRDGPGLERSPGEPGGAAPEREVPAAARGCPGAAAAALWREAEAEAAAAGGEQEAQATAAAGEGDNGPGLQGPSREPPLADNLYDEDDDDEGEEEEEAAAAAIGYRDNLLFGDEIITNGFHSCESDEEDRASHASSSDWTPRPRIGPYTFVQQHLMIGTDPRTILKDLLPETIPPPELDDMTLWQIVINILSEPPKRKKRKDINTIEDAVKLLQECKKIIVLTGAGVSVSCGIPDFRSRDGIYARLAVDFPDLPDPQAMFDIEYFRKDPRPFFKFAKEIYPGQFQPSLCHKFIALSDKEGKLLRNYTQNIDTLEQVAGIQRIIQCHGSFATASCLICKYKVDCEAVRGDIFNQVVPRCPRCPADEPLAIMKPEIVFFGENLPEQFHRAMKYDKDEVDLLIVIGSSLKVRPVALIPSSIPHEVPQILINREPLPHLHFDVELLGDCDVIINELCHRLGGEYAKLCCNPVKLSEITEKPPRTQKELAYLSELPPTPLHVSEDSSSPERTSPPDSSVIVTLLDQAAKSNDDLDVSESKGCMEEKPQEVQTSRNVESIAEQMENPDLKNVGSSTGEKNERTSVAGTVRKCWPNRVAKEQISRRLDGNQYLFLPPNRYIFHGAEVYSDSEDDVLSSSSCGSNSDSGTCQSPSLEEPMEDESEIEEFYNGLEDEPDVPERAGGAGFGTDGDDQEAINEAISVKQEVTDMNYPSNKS
# Description: (§1) The continuous assay for comparing isoform specificity of S2P04 was performed using the universal fluorogenic sirtuin substrate described by Schuster et al.[41]. Briefly, the inhibition reactions were performed in 50-µL volumes at 37 °C in black, half-area, 96-well plates. The sirtuin enzyme (0.25 µM) was preincubated with different concentrations of the peptide S2P04 (0.0064–50 µM for SIRT1 and SIRT2, 0.5–100 µM for SIRT3) or TB (0.16–150 µM for SIRT1–SIRT3), and 1 mM NAD^+ in assay buffer (20 mM Tris, pH 7.8, 150 mM NaCl, 5 mM MgCl2, and 1 mM DTT) for 15 min. Following incubation, the reaction started with the addition of the fluorogenic substrate (5 µM), and product formation was monitored by measuring the fluorescence intensity every 20 s for 5 min (SIRT2) or 30 min (SIRT1 and SIRT3) in a BioTek Synergy H1 microplate reader at λex = 320 nm and λem = 408 nm (gain = 130 and read height = 7 mm). Initial rates of product formation were determined by a linear regression of the plot of fluorescence intensity vs. time and normalized relative to 0% (max inhibitor) and 100% (no inhibitor) controls. The assay was repeated to determine the IC50 values of all BuK peptides for SIRT2. IC50 values were determined by nonlinear regression of the plot of the normalized initial rate vs. inhibitor concentration using GraphPad Prism. The determined IC50 values are provided in Supplementary Table 2, and inhibition curves can be seen in Supplementary Fig. 20.
# [3] = target: T2, SIRT2 (Homo sapiens, UniProt Q8IXJ6); experiment: Continuous fluorogenic sirtuin inhibition assay, SIRT2 (tBuK peptides, TB); assay type: biochemical
# T2 sequence (Q8IXJ6 1-389): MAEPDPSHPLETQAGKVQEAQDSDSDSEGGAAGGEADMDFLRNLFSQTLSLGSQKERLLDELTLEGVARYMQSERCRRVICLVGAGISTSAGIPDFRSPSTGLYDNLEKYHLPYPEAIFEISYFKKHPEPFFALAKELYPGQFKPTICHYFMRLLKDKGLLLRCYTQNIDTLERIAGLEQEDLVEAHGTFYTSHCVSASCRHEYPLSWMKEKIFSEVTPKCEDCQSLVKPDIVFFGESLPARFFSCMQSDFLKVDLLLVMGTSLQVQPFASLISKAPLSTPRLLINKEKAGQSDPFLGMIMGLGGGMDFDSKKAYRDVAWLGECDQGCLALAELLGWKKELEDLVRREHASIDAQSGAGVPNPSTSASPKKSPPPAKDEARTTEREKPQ
# Description: as §1
# [4] = target: T3, SIRT3 (Homo sapiens, UniProt Q9NTG7); experiment: Continuous fluorogenic sirtuin inhibition assay, SIRT3; assay type: biochemical
# T3 sequence (Q9NTG7 1-399): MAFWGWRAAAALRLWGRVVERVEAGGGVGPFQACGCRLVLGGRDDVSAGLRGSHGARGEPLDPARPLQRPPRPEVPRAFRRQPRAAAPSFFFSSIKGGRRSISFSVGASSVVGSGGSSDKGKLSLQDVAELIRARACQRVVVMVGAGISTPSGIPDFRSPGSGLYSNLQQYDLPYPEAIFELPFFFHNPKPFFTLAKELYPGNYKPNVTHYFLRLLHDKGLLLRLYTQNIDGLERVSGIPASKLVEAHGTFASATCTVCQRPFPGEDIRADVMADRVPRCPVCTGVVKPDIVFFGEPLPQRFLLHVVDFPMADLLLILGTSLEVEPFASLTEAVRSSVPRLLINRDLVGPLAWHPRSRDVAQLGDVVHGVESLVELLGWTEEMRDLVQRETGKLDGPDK
# Description: as §1
# [5] = mean ± SD of two independent experiments
smiles,measurement,setting,value
"CCCC(=O)NCCCC[C@H](N)C(=O)O [compound 5, N ^Ɛ-butyryl-L-lysine]",fold increase in particle yield vs no ncAA,[1],~100 fold
CCCC(=S)NCCCC[C@H](NC(=O)[C@@H](NC(=O)[C@@H](NC(=O)[C@H](CS)NC(=O)[C@@H](N)[C@@H](C)O)[C@@H](C)O)C(C)C)C(=O)N[C@H](C(=O)NCC(N)=O)[C@@H](C)CC [S2P04-tBuK] (H-TCTV[X1]IG-NH2),remaining activity at 0.0064 µM,"[2]; inhibitor 0.0064 µM, read-out: Normalized Activity, SIRT1",92.8%
same,remaining activity at 0.032 µM,"[2]; inhibitor 0.032 µM, read-out: Normalized Activity, SIRT1",87.5%
same,remaining activity at 0.5 µM,"[2]; inhibitor 0.5 µM, read-out: Normalized Activity, SIRT1",26.2%
same,remaining activity at 2 µM,"[2]; inhibitor 2 µM, read-out: Normalized Activity, SIRT1",2.97%
same,remaining activity at 50 µM,"[2]; inhibitor 50 µM, read-out: Normalized Activity, SIRT1",0%
same,IC50,[2]; [5],250 ± 50 nM
same,remaining activity at 0.0064 µM,"[3]; inhibitor 0.0064 µM, read-out: Normalized Activity, SIRT2",94.8%
same,activity at 0.0064 µM,"[3]; inhibitor 0.0064 µM, single trials",85.9%
same,"%Activity, SIRT2","[3]; inhibitor 0.0064 µM, single trials, 0.0064 µM",94.59%
same,remaining activity at 0.032 µM,"[3]; inhibitor 0.032 µM, read-out: Normalized Activity, SIRT2",85.2%
same,activity at 0.032 µM,"[3]; inhibitor 0.032 µM, single trials",77.2%
same,"%Activity, SIRT2","[3]; inhibitor 0.032 µM, single trials, 0.032 µM",83.831%
same,remaining activity at 0.5 µM,"[3]; inhibitor 0.5 µM, read-out: Normalized Activity, SIRT2",5.68%
same,activity at 0.5 µM,"[3]; inhibitor 0.5 µM, single trials",5.65%
same,"%Activity, SIRT2","[3]; inhibitor 0.5 µM, single trials, 0.5 µM",6.5384%
same,remaining activity at 1 µM,"[3]; inhibitor 1 µM, read-out: Normalized Activity, SIRT2",3.34%
same,activity at 1 µM,"[3]; inhibitor 1 µM, single trials",3.54%
same,"%Activity, SIRT2","[3]; inhibitor 1 µM, single trials, 1 µM",4.6849%
same,remaining activity at 2 µM,"[3]; inhibitor 2 µM, read-out: Normalized Activity, SIRT2",3.21%
same,activity at 2 µM,"[3]; inhibitor 2 µM, single trials",3.42%
same,"%Activity, SIRT2","[3]; inhibitor 2 µM, single trials, 2 µM",4.4288%
same,remaining activity at 4 µM,"[3]; inhibitor 4 µM, read-out: Normalized Activity, SIRT2",2.33%
same,activity at 4 µM,"[3]; inhibitor 4 µM, single trials",2.63%
same,"%Activity, SIRT2","[3]; inhibitor 4 µM, single trials, 4 µM",3.5157%
same,remaining activity at 50 µM,"[3]; inhibitor 50 µM, read-out: Normalized Activity, SIRT2",0%
same,activity at 50 µM,"[3]; inhibitor 50 µM, single trials",0.535%
same,"%Activity, SIRT2","[3]; inhibitor 50 µM, single trials, 50 µM",1.0081%
same,IC50,"[3]; mean ± SD of two independent experiments, read-out: IC50, SIRT2",92 ± 3 nM
same,remaining activity at 0.5 µM,"[4]; inhibitor 0.5 µM, read-out: Normalized Activity, SIRT3",98.2%
same,remaining activity at 1 µM,"[4]; inhibitor 1 µM, read-out: Normalized Activity, SIRT3",96.2%
same,remaining activity at 2 µM,"[4]; inhibitor 2 µM, read-out: Normalized Activity, SIRT3",103%
same,remaining activity at 4 µM,"[4]; inhibitor 4 µM, read-out: Normalized Activity, SIRT3",82.4%
same,remaining activity at 10 µM,"[4]; inhibitor 10 µM, read-out: Normalized Activity, SIRT3",59.8%
same,remaining activity at 25 µM,"[4]; inhibitor 25 µM, read-out: Normalized Activity, SIRT3",29.6%
same,remaining activity at 50 µM,"[4]; inhibitor 50 µM, read-out: Normalized Activity, SIRT3",9.72%
same,remaining activity at 100 µM,"[4]; inhibitor 100 µM, read-out: Normalized Activity, SIRT3",0%
same,IC50,[4]; [5],14000 ± 1000 nM
